Measured values taken from article PMC11089506 (Journal of Medicinal Chemistry, 2024).
Structures can show the parent of a compound that is named as a salt. Where two headings read alike, the source gives them in different places.

Legend:
human 5-HT2AR = human 5-HT2AR (Homo sapiens, UniProt P28223); assay: Ca2+/Fluo-4 assay, agonist mode, stable 5-HT2AR-HEK293 cells; settings: for 5-HT2AR Rmax (%): % of the 5-HT Rmax; for 5-HT2AR pEC50 ± S.E.M. / 5-HT2AR Rmax ± S.E.M.: Table S2; for 5-HT2AR Rmax ± S.E.M.: % of the 5-HT Rmax on the same 96-well plate; for EC50: at least 3 independent experiments; for fold drop in agonist potency (fold higher EC50) at 5-HT2AR: relative to (S)-11
human 5-HT2CR = human 5-HT2CR (Homo sapiens, UniProt P28335); assay: Ca2+/Fluo-4 assay, agonist mode, stable 5-HT2CR-HEK293 cells; settings: for 5-HT2CR Rmax ± S.E.M.: % of the 5-HT Rmax on the same 96-well plate
[1] = read-out: 5-HT2AR EC50, Table 2
[2] = 5-HT2CR EC50 (nM), Table 2, at least 3 independent experiments
[3] = read-out: 5-HT2AR EC50, Table 1
[4] = read-out: 5-HT2CR EC50, Table 1, at least 3 independent experiments
[5] = 5-HT2CR EC50 (nM), Table 1, at least 3 independent experiments
[6] = read-out: 5-HT2CR EC50, Table 2, at least 3 independent experiments

Chain of human 5-HT2AR (P28223 whole entry): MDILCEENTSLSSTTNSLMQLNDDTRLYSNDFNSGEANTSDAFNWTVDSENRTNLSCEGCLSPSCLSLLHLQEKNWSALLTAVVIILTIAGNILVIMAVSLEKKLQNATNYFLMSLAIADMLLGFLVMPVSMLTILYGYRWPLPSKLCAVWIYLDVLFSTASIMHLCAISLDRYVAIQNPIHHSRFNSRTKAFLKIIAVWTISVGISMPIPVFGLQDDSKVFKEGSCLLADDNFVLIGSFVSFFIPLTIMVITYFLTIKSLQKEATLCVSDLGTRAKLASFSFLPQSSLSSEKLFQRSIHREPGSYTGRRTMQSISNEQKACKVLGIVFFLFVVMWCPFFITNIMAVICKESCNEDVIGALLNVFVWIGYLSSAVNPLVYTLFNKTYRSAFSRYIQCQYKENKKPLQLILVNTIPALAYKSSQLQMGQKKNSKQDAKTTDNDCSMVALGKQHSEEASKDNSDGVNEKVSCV
Chain of human 5-HT2CR (P28335 33-458): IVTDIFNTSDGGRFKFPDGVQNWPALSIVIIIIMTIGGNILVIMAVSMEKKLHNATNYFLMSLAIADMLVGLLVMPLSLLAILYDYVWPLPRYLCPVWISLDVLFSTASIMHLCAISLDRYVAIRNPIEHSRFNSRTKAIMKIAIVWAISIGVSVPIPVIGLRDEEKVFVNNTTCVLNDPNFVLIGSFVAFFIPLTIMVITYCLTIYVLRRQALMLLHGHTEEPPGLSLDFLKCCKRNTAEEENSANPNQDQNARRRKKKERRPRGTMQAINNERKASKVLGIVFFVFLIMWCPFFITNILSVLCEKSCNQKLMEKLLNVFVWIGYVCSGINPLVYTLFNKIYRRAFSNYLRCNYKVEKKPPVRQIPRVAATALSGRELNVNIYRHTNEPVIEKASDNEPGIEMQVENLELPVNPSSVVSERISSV

Structure (SMILES)	5-HT2AR Rmax (%) (human 5-HT2AR; Table 2)	5-HT2AR pEC50 ± S.E.M. (human 5-HT2AR)	5-HT2AR Rmax ± S.E.M. (human 5-HT2AR) [%]	EC50 (human 5-HT2CR; [2]) [nM]	EC50 (human 5-HT2AR; [3]) [nM]	5-HT2CR pEC50 ± S.E.M. (human 5-HT2CR; Table S2)	EC50 (human 5-HT2CR; [4]) [nM]	other results
COc1cc(C(F)(F)F)ccc1C1CCCNC1.Cl (stereo not drawn) [Compound 22eu, 3-(2-Methoxy-4-(trifluoromethyl)phenyl)piperidine Hydrochloride]	68	7.16 ± 0.05	68 ± 2	> 10000				EC50 (human 5-HT2AR; [1]): 69 nM
COc1cc(C2CCCNC2)c(OC)cc1Cl (stereo not drawn) [Compound 8dis, 3-(4-Chloro-2,5-dimethoxyphenyl)piperidine]		6.16 ± 0.11			690	5.75 ± 0.04	1800	
COc1cc(C(F)(F)F)c(OC)cc1[C@H]1CCCNC1 [(R)-11, 3-(2,5-Dimethoxy-4-(trifluoromethyl)phenyl)piperidine Hydrochloride]						6.07 ± 0.06		
CCCCc1cc(OC)c(C2CCCNC2)cc1OC.Cl (stereo not drawn) [Compound 14eu, 3-(4-Butyl-2,5-dimethoxyphenyl)piperidine Hydrochloride]		6.57 ± 0.06			270			EC50 (human 5-HT2CR; [5]): > 10000 nM
CCOc1cc(C2CCCNC2)c(OC)cc1C(F)(F)F.Cl (stereo not drawn) [Compound 25eu, 3-(5-Ethoxy-2-methoxy-4-(trifluoromethyl)phenyl)piperidine Hydrochloride]	95	7.99 ± 0.11	95 ± 1			6.54 ± 0.04		EC50 (human 5-HT2AR; [1]): 10 nM; EC50 (human 5-HT2CR; [6]): 290 nM
COc1cc(C2CCCNC2)c(OC)cc1SC.Cl (stereo not drawn) [Compound 15eu, 3-(2,5-Dimethoxy-4-(methylthio)phenyl)piperidine Hydrochloride]		7.59 ± 0.11			26	6.29 ± 0.06	510	
COc1ccc(OC)c(C2CCCNC2)c1 (stereo not drawn) [Compound 7, 3-(2,5-Dimethoxyphenyl)piperidine]								agonist activity at 5-HT2AR (in words) (human 5-HT2AR): very weak 5-HT2AR agonist activity; EC50 (human 5-HT2AR; 5-HT2AR EC50 (nM), Table 1): > 10000 nM; EC50 (human 5-HT2CR; [5]): > 10000 nM
CCc1cc(OC)c(C2CCCNC2)cc1OC.Cl (stereo not drawn) [Compound 13dis, 3-(4-Ethyl-2,5-dimethoxyphenyl)piperidine Hydrochloride]		6.94 ± 0.09			110	6.19 ± 0.12	640	
COc1cc(C2CNC2)c(OC)cc1Br [Compound 4, 3-(4-Bromo-2,5-dimethoxyphenyl)azetidine Hydrochloride]		8.80 ± 0.10	97 ± 3		1.6	8.24 ± 0.07	5.2	5-HT2AR Rmax (%) (human 5-HT2AR; Table 1): 97 ± 3%; 5-HT2CR Rmax ± S.E.M. (human 5-HT2CR; Table S2): 90 ± 3%
CCCCc1cc(OC)c(C2CCCNC2)cc1OC.Cl (stereo not drawn) [Compound 14dis, 3-(4-Butyl-2,5-dimethoxyphenyl)piperidine Hydrochloride]		6.46 ± 0.05			340	5.80 ± 0.07	1600	
COc1cc(C2CCCNC2)c(OC)cc1I (stereo not drawn) [Compound 9dis, 3-(4-Iodo-2,5-dimethoxyphenyl)piperidine]		6.58 ± 0.03			260	5.55 ± 0.08	2800	
Cl.FC(F)(F)c1ccc(C2CCCNC2)cc1 (stereo not drawn) [Compound 21, 3-(4-(Trifluoromethyl)phenyl)piperidine Hydrochloride]				> 10000				agonist activity at 5-HT2AR (in words) (human 5-HT2AR): negligible agonist activity; EC50 (human 5-HT2AR; 5-HT2AR EC50 (nM), Table 2): > 10000 nM; agonist activity at 5-HT2CR (in words) (human 5-HT2CR): negligible agonist activity
COc1cc(C2CCCNC2)ccc1C(F)(F)F.Cl (stereo not drawn) [Compound 23eu, 3-(3-Methoxy-4-(trifluoromethyl)phenyl)piperidine Hydrochloride]	68	5.74 ± 0.09	68 ± 7	> 10000				EC50 (human 5-HT2AR; [1]): 1800 nM
COc1cc(C2CCCNC2)c(OC)cc1C.Cl (stereo not drawn) [Compound 12eu, 3-(2,5-Dimethoxy-4-methylphenyl)piperidine Hydrochloride]		6.98 ± 0.10			100			EC50 (human 5-HT2CR; [5]): > 10000 nM
CCOc1cc(C(F)(F)F)c(OCC)cc1C1CCCNC1.Cl (stereo not drawn) [Compound 26eu, 3-(2,5-Diethoxy-4-(trifluoromethyl)phenyl)piperidine Hydrochloride]	47	6.99 ± 0.07	47 ± 6	> 10000				EC50 (human 5-HT2AR; [1]): 100 nM; fold drop in agonist potency (fold higher EC50) at 5-HT2AR (human 5-HT2AR): 30 fold
NCCc1c[nH]c2ccc(O)cc12 [Compound 5-HT, 5-hydroxytryptamine, reference compound]			100					5-HT2AR Rmax (%) (human 5-HT2AR; Table 1): 100%
COc1cc(C2CCCNC2)c(OC)cc1C.Cl (stereo not drawn) [Compound 12dis, 3-(2,5-Dimethoxy-4-methylphenyl)piperidine Hydrochloride]		6.58 ± 0.06			260	5.92 ± 0.08	1200	
CCOc1cc(C(F)(F)F)c(OC)cc1C1CCCNC1.Cl (stereo not drawn) [Compound 24dis, 3-(2-Ethoxy-5-methoxy-4-(trifluoromethyl)phenyl)piperidine Hydrochloride]	77	6.39 ± 0.08	77 ± 7	> 10000		5.56 ± 0.02		EC50 (human 5-HT2AR; [1]): 410 nM; EC50 (human 5-HT2CR; read-out: 5-HT2CR EC50, Table S2): 2700 nM
CCN1CCC[C@@H](c2cc(OC)c(C(F)(F)F)cc2OC)C1 [(S)-20, (S)-3-(2,5-Dimethoxy-4-(trifluoromethyl)phenyl)-1-ethylpiperidine]	44	5.82 ± 0.08	44 ± 3	> 10000				
CCSc1cc(OC)c(C2CCCNC2)cc1OC.Cl (stereo not drawn) [Compound 16dis, 3-(2,5-Dimethoxy-4-(ethylthio)phenyl)piperidine Hydrochloride]		6.73 ± 0.10			190	6.11 ± 0.08	780	
CCOc1cc(C(F)(F)F)c(OCC)cc1C1CCCNC1.Cl (stereo not drawn) [Compound 26dis, 3-(2,5-Diethoxy-4-(trifluoromethyl)phenyl)piperidine Hydrochloride]	69	5.52 ± 0.06	69 ± 4					EC50 (human 5-HT2AR; [1]): 3000 nM; EC50 (human 5-HT2CR; [6]): > 10000 nM
CCc1cc(OC)c(C2CCCNC2)cc1OC.Cl (stereo not drawn) [Compound 13eu, 3-(4-Ethyl-2,5-dimethoxyphenyl)piperidine Hydrochloride]		7.39 ± 0.11			41	6.42 ± 0.12	380	agonist activity at 5-HT2CR (in words) (human 5-HT2CR): measurable agonist activity
COc1cc(C2CCCNC2)ccc1C(F)(F)F.Cl (stereo not drawn) [Compound 23, 3-(3-Methoxy-4-(trifluoromethyl)phenyl)piperidine Hydrochloride]								fold drop in agonist potency (fold higher EC50) at 5-HT2AR (human 5-HT2AR): more than 500 fold
CCN1CCC[C@H](c2cc(OC)c(C(F)(F)F)cc2OC)C1 [(R)-20, (R)-3-(2,5-Dimethoxy-4-(trifluoromethyl)phenyl)-1-ethylpiperidine]				> 10000				EC50 (human 5-HT2AR; 5-HT2AR EC50 (nM), Table 2): > 10000 nM
CCOc1cc(C2CCCNC2)c(OC)cc1C(F)(F)F.Cl (stereo not drawn) [Compound 25dis, 3-(5-Ethoxy-2-methoxy-4-(trifluoromethyl)phenyl)piperidine Hydrochloride]	86	6.50 ± 0.10	86 ± 6	> 10000				EC50 (human 5-HT2AR; [1]): 320 nM
Br.COc1cc(C2CCNC2)c(OC)cc1Br (stereo not drawn) [Compound 5eu, 3-(4-Bromo-2,5-dimethoxyphenyl)pyrrolidine Hydrobromide]		8.28 ± 0.07	57 ± 3		5.3	7.59 ± 0.03	26	5-HT2AR Rmax (%) (human 5-HT2AR; Table 1): 57 ± 3%; Rmax at 5-HT2CR (human 5-HT2CR): 16%; 5-HT2CR Rmax (%) (human 5-HT2CR; Table 1, % of the 5-HT Rmax): 73 ± 3%; 5-HT2CR Rmax ± S.E.M. (human 5-HT2CR; Table S2): 73 ± 3%
